From patent US9314521B2, “Adjuvant compound” (ISA Pharmaceuticals B.V., priority 2011, dated 2016)
Non-standard residues stand in square brackets, D forms with d. No end group written: not given here. *: point of attachment. Cys((RS)-2,3-di(palmitoyloxy)-propyl) = Cys S-substituted with (RS)-2,3-di(palmitoyloxy)-propyl (dipalmitoyl-glyceryl); X1 = (RS)‑2,3‑di(palmitoyloxy)‑propyl, CCCCCCCCCCCCCCCC(=O)OCC(C*)OC(=O)CCCCCCCCCCCCCCC; 1‑tetradecyl‑urea = N-terminal tetradecyl-urea lipid group, CCCCCCCCCCCCCCNC(=O)*; Abu = CC[C@H](N)C(=O)O

Legend:
DC = test: UPam variants: up-regulation of cell surface markers CD40, CD86 and MHC Class II (DC maturation); format: cell-based; conditions: 3 μM and 30 nM
Method: The UPam variants wherein Xn was varied were compared by measuring IL-12 production and the up-regulation of the cell surface markers CD40, CD86 and MHC Class II at 3 μM and 30 nM. Herein, Xn takes the place of serine in the SK4 (SEQ ID NO: 18) peptide part according to formula (2), containing different groups for R^5. Compounds X1 up to X8 containing these different groups R^5, which were studied are listed in the table below, wherein X1 is the UPam-14 as prepared in Example 1 and X2 is the UPam-14-Abu as prepared in Example 3. The potency of the compounds to upregulate CD40 followed the trend as observed in the DC maturation assay. […] In the up-regulation of the cell surface marker CD86 and MHC class II a corroborated trend was observed.

murine DC cell line = test: DC maturation: cell surface marker expression in murine DC cell line by FACS (FIG. 4); format: cell-based; conditions: 30 nM, 48 hours, compared to Pam3CSK4
Method: The DCs were subsequently stained with antibodies directed against CD40, CD86 and MHC class II molecules. Mean fluorescence intensity was determined FACS analysis.

[1] = test system: human monocyte-derived dendritic cells (moDC); test: activation of human monocyte-derived dendritic cells (moDC): IL12p40, IL12p70 ELISA and CD86 staining (FIG. 5); format: cell-based; conditions: 48 hours of incubation, compared to Pam3CSK4 or Pam-SLP
Method: On day 5 of culturing the CD 14±fraction of donor PBMC in growth medium with IL-4 and GM-CSF, these moDC were incubated with either wt Pam3CSK4 (SEQ ID NO: 11), U-Pam14, Pam3CSK4 (SEQ ID NO: 11)-conjugated or U-Pam14-conjugated synthetic long peptide (Pam-SLP or uPam14-SLP), or left unstimulated. After 48 hours of incubation, the supernatant of the moDC cultures was taken, which was subjected to IL12p40 (FIG. 5A) and IL12p70 (FIG. 5B) ELISA analysis. After 48 hours of incubation, the moDCs were stained with antibodies directed against CD86 (FIG. 5C).

[2] = test system: murine dendritic cell line; test: activation of murine dendritic cell line, IL-12 ELISA; format: cell-based; conditions: 24 hours, titrating concentrations
Method: The two compounds U-Pam-12 and U-Pam-14 as obtained in Example 1 were tested in comparison to unmodified Pam3CysSK4 (SEQ ID NO: 11) for their functional capacity to activate a human TLR2 expressing reporter cell line HEK-TLR2 (FIG. 3A) and a murine dendritic cell line (FIG. 3B).
In the test live TLR2-transfected HEK cells and dendritic cells (5×10^4 cells/well) were incubated with titrating concentrations of the respective Pam compounds in culture medium and incubated at 37° C. After 24 hours, supernatants were harvested and the presence of IL-8 or IL-12 cytokines respectively, was measured by specific sandwich ELISA assays.

cellular immune response = conditions: mice; Vaccine 22 (2004) 2494-2499; cited from earlier work

Substance | up-regulation of CD40 compared to Pam3Cys-SK4 (DC) | expression of cell surface molecules CD40, CD86 and MHC class II (mean fluorescence intensity) (murine DC cell line) | activation of human dendritic cells (IL12p40, IL12p70, CD86) [1] | stimulation (IL-12 cytokine production) compared to unmodified Pam3CysSK4 [2] | additive for eliciting a cellular immune response (cellular immune response)
1-tetradecyl-urea-Cys((RS)-2,3-di(palmitoyloxy)-propyl)-Abu-Lys-Lys-Lys-Lys-NH2 ({1‑tetradecyl‑urea-Cys((RS)-2,3-di(palmitoyloxy)-propyl)}-[Abu]KKKK-NH2) [Upam-14-Abu] | increased amount of up-regulation |  |  |  | 
1-tetradecyl-urea-Cys((RS)-2,3-di(palmitoyloxy)-propyl)-Ser-Lys-Lys-Lys-Lys-NH2 ({1‑tetradecyl‑urea}-C(X1)SKKKK-NH2; SMILES CCCCCCCCCCCCCCCC(=O)OCC(CSC[C@H](NC(=O)NCCCCCCCCCCCCCC)C(=O)N[C@@H](CO)C(=O)N[C@@H](CCCCN)C(=O)N[C@@H](CCCCN)C(=O)N[C@@H](CCCCN)C(=O)N[C@@H](CCCCN)C(N)=O)OC(=O)CCCCCCCCCCCCCCC) [U-Pam-14] | increased amount of up-regulation | superior to wt Pam | improves activation of human dendritic cells | superior to wt Pam | 
Pam3Cys-SK4: established TLR2/TLR1 ligand, state of the art lipopeptide adjuvant (SEQ ID NO: 11) (CSKKKK; not fully specified (residue 1, N-terminus)) |  |  |  |  | most effective additive
